# Legend:
# Type in all cases: cell-based
# [1] = test system: Pasteurella multocida PM 6391 (ATCC 43137, reference strain); assay: MIC, broth-microdilution (CLSI VET01-A4), strain PM 6391; conditions: Pasteurella multocida strain PM 6391, broth-microdilution; unit assumed
# In short: (§1)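 Using trays holding a doubling concentration series, the MIC is read as the minimal concentration with no eye-detectable growth.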
# [2] = test system: Mannheimia haemolytica MH 6357 (M7/2, reference strain, cattle infection strain); assay: MIC, broth-microdilution (CLSI VET01-A4), strain MH 6357; conditions: Mannheimia haemolytica strain MH 6357, broth-microdilution; unit assumed
# In short: as §1
# [3] = test system: Mannheimia haemolytica MH 6374 (ATCC 33396, reference strain); assay: MIC, broth-microdilution (CLSI VET01-A4), strain MH 6374; conditions: Mannheimia haemolytica strain MH 6374, broth-microdilution; unit assumed
# In short: as §1
# [4] = test system: Pasteurella multocida PM 10775 (080130003051, BRD field isolate); assay: MIC, broth-microdilution (CLSI VET01-A4), strain PM 10775; conditions: Pasteurella multocida strain PM 10775, broth-microdilution; unit assumed
# In short: as §1
# [5] = test system: Pasteurella multocida PM 12080 (IV102277-0093, BRD field isolate); assay: MIC, broth-microdilution (CLSI VET01-A4), strain PM 12080; conditions: Pasteurella multocida strain PM 12080, broth-microdilution; unit assumed
# In short: as §1
# [6] = test system: Pasteurella multocida PM 6267 (P 2225 (L386), reference strain, mouse infection strain); assay: MIC, broth-microdilution (CLSI VET01-A4), strain PM 6267; conditions: Pasteurella multocida strain PM 6267, broth-microdilution; unit assumed
# In short: as §1
# [7] = test system: Mannheimia haemolytica MH 12587 (1071, BRD field isolate, macrolide-resistance: erm+, E+); assay: MIC, broth-microdilution (CLSI VET01-A4), strain MH 12587; conditions: Mannheimia haemolytica strain MH 12587, broth-microdilution; unit assumed
# In short: as §1
# [8] = test system: Mannheimia haemolytica MH 13093 (XB0472-6014.1, BRD field isolate); assay: MIC, broth-microdilution (CLSI VET01-A4), strain MH 13093; conditions: Mannheimia haemolytica strain MH 13093, broth-microdilution; unit assumed
# In short: as §1
# [9] = test system: Mannheimia haemolytica MH 10720 (154, BRD field isolate); assay: MIC, broth-microdilution (CLSI VET01-A4), strain MH 10720; conditions: Mannheimia haemolytica strain MH 10720, broth-microdilution; unit assumed
# In short: as §1
# [10] = test system: Mannheimia haemolytica MH 13065 (XB0446-6003.9, BRD field isolate); assay: MIC, broth-microdilution (CLSI VET01-A4), strain MH 13065; conditions: Mannheimia haemolytica strain MH 13065, broth-microdilution; unit assumed
# In short: as §1
MIC PM 6391 [1] [µg/mL],MIC PM 10775 [4] [µg/mL],MIC PM 12080 [5] [µg/mL],MIC PM 6267 [6] [µg/mL],Compound,MIC MH 6357 [2] [µg/mL],MIC MH 6374 [3] [µg/mL],MIC MH 12587 [7] [µg/mL],MIC MH 13093 [8] [µg/mL],MIC MH 10720 [9] [µg/mL],MIC MH 13065 [10] [µg/mL]
0.2,≤ 0.1,≤ 0.1,≤ 0.1,COCCNCc1ccc(C#Cc2ccc(C(=O)N[C@H](C(=O)NO)C(C)(C)S(C)(=O)=O)cc2)cc1 [Compound 257],3.1,1.6,3.1,1.6,0.4,1.6
≤ 0.1,≤ 0.1,≤ 0.1,≤ 0.1,CC(C)([C@H](NC(=O)c1ccc(C#Cc2ccc(CN3CCOCC3)cc2)cc1)C(=O)NO)S(C)(=O)=O [Compound 258],1.6,1.6,1.6,1.6,0.2,0.8
≤ 0.1,≤ 0.1,≤ 0.1,≤ 0.1,COc1ccc(CNCc2ccc(C#Cc3ccc(C(=O)N[C@H](C(=O)NO)C(C)(C)S(C)(=O)=O)cc3)cc2)cc1 [Compound 260],1.6,0.4,1.6,0.8,≤ 0.1,0.4
0.4,≤ 0.1,0.4,≤ 0.1,CC(C)([C@H](NC(=O)c1ccc(C#Cc2ccc(CN3CCCC3)cc2)cc1)C(=O)NO)S(C)(=O)=O [Compound 262],12.5,6.3,12.5,6.3,1.6,6.3
0.4,≤ 0.1,0.2,≤ 0.1,CC(C)([C@H](NC(=O)c1ccc(C#Cc2ccc(CNC3CCC3)cc2)cc1)C(=O)NO)S(C)(=O)=O [Compound 263],6.3,3.1,6.3,3.1,0.8,3.1
0.8,≤ 0.1,0.4,0.2,CC(C)([C@H](NC(=O)c1ccc(C#Cc2ccc(CNC3CCCC3)cc2)cc1)C(=O)NO)S(C)(=O)=O [Compound 264],12.5,12.5,12.5,6.3,1.6,6.3
0.8,≤ 0.1,0.4,≤ 0.1,CCCNCc1ccc(C#Cc2ccc(C(=O)N[C@H](C(=O)NO)C(C)(C)S(C)(=O)=O)cc2)cc1 [Compound 265],6.3,6.3,6.3,3.1,0.8,3.1
≤ 0.1,≤ 0.1,≤ 0.1,≤ 0.1,CC(C)([C@H](NC(=O)c1ccc(C#Cc2ccc(CNCC#N)cc2)cc1)C(=O)NO)S(C)(=O)=O [Compound 266],0.8,0.4,1.6,0.8,≤ 0.1,0.8
≤ 0.1,≤ 0.1,≤ 0.1,≤ 0.1,CC(C)([C@H](NC(=O)c1ccc(C#Cc2ccc(CNCc3ccnc(Cl)c3)cc2)cc1)C(=O)NO)S(C)(=O)=O [Compound 268],0.4,0.4,0.8,0.4,≤ 0.1,0.2
≤ 0.1,≤ 0.1,≤ 0.1,≤ 0.1,CC(C)([C@H](NC(=O)c1ccc(C#Cc2ccc(CNCc3cccs3)cc2)cc1)C(=O)NO)S(C)(=O)=O [Compound 271],0.4,0.2,0.8,0.4,≤ 0.1,0.2
0.2,≤ 0.1,≤ 0.1,≤ 0.1,Cc1ccc(CNCc2ccc(C#Cc3ccc(C(=O)N[C@H](C(=O)NO)C(C)(C)S(C)(=O)=O)cc3)cc2)cc1 [Compound 272],0.8,0.4,1.6,0.8,≤ 0.1,0.2
0.2,≤ 0.1,≤ 0.1,≤ 0.1,CC(C)([C@H](NC(=O)c1ccc(C#Cc2ccc(CNCC3CCCO3)cc2)cc1)C(=O)NO)S(C)(=O)=O (stereo partly drawn) [Compound 273],6.3,3.1,6.3,6.3,0.8,3.1
≤ 0.1,≤ 0.1,≤ 0.1,≤ 0.1,CC(C)(O)[C@H](NC(=O)c1ccc(C#Cc2ccc(CNCc3ccncc3)cc2)cc1)C(=O)NO [Compound 275],0.4,0.2,0.4,0.4,≤ 0.1,0.2
0.4,≤ 0.1,≤ 0.1,≤ 0.1,CC(C)(C(NC(=O)c1ccc(C#Cc2ccc(CNCc3ccccc3)cc2)cc1)C(=O)NO)[N+](=O)[O-] (stereo not drawn) [Compound 276],0.8,0.8,0.8,0.8,≤ 0.1,0.4
0.8,≤ 0.1,0.4,0.4,CC(C)(C(NC(=O)c1ccc(C#Cc2ccc(CNCc3ccc(Cl)cc3)cc2)cc1)C(=O)NO)[N+](=O)[O-] (stereo not drawn) [Compound 277],1.6,1.6,3.1,1.6,0.4,1.6
≤ 0.1,≤ 0.1,≤ 0.1,≤ 0.1,CC(C)(C(NC(=O)c1ccc(C#Cc2ccc(CNCc3ccncc3)cc2)cc1)C(=O)NO)[N+](=O)[O-] (stereo not drawn) [Compound 278],0.4,0.4,0.8,0.4,≤ 0.1,0.4
1.6,0.4,1.6,0.4,CC(C)(C(NC(=O)c1ccc(C#Cc2ccc(CNCc3ccc(C(F)(F)F)cc3)cc2)cc1)C(=O)NO)[N+](=O)[O-] (stereo not drawn) [Compound 279],3.1,6.3,6.3,6.3,1.6,6.3
0.4,≤ 0.1,0.2,≤ 0.1,C=CCNCc1ccc(C#Cc2ccc(C(=O)NC(C(=O)NO)C(C)(C)[N+](=O)[O-])cc2)cc1 (stereo not drawn) [Compound 280],1.6,0.8,3.1,1.6,≤ 0.1,1.6
0.4,0.4,0.2,0.8,CC(C)(C(NC(=O)c1ccc(C#Cc2ccc(CNCc3ccccn3)cc2)cc1)C(=O)NO)[N+](=O)[O-] (stereo not drawn) [Compound 282],0.8,0.8,1.6,1.6,≤ 0.1,0.4
1.6,0.2,0.8,3.1,Cc1ccc(CNCc2ccc(C#Cc3ccc(C(=O)NC(C(=O)NO)C(C)(C)[N+](=O)[O-])cc3)cc2)cc1 (stereo not drawn) [Compound 283],3.1,3.1,6.3,3.1,0.2,1.6
0.4,≤ 0.1,≤ 0.1,0.8,CC(C)(C(NC(=O)c1ccc(C#Cc2ccc(CNCc3ccc(F)cc3)cc2)cc1)C(=O)NO)[N+](=O)[O-] (stereo not drawn) [Compound 284],0.4,0.8,1.6,0.8,≤ 0.1,0.2
